Structures can show the parent of a compound that is named as a salt.
target: human GluN1/GluN2B NMDA receptors (Homo sapiens, UniProt Q05586+Q13224); test: Cell-based calcium flux (FLIPR) assay on cloned human GluN1/GluN2B ion channels expressed in mammalian cells; conditions: standard assay; glutamate ~EC40, 10 μM glycine; stable Tet-On cell line
Procedure: 5.3. Biological Assays: Effect of Compounds of Formula (I) on Cloned Human GluN1/GluN2B Ion Channels Expressed in Mammalian Cells
NMDA receptors are ion channels that are highly permeable to Ca^2+ ions, rendering it possible to monitor NMDA receptor function using cell-based calcium flux assay. In this assay, co-agonists glutamate and glycine are added to cells heterologously expressing human GluN1/GluN2B NMDA receptors to initiate cellular Ca^2+ influx. The time course of the changes in intracellular calcium is measured using a fluorescent dye and a FLIPR (Fluorometric Imaging Plate Reader) device.
Twenty four hours before measurements, the expression of the NMDA receptors in the stable cell line is induced with Tet-On inducible system in the presence of a non-selective NMDA receptor blocker. On the day of the experiment, cell culture media is carefully washed and the cells are loaded with Calcium 5 Dye Kit (Molecular Devices) in dye loading buffer containing 137 mM NaCl, 4 mM KCl, 2 mM CaCl2, 0.5 mM MgCl2 (standard assay) or 1.5 mM MgCl2 (HTS assay), 10 mM HEPES and 5 mM D-glucose; pH 7.4. After 1 h incubation at the room temperature, the dye is washed away with the assay buffer (137 mM NaCl (standard assay) or 150 mM (HTS assay), 4 mM KCl (standard assay) or 3 mM (HTS assay), 2 mM CaCl2, 0.01 mM EDTA, 10 mM HEPES and 5 mM D-glucose; pH 7.4) In the FLIPR TETRA reader, various concentrations of the test compounds are added to the cells for 5 min while fluorescence is monitored to detect potential agonist activity. Next, co-agonists, glutamate and glycine are added for another 5 minutes. The concentration of glutamate corresponding to ˜EC40 (standard assay) or EC40 (HTS assay) is used to maximize the assay's signal window and ability to detect NMDA receptor antagonists and negative allosteric modulators. A saturating concentration (10 μM) of glycine is also present in the assay. A non-selective NMDA receptor antagonist, (+)MK-801 is used as a positive control for antagonist activity. The fluorescent signal in the presence of test compounds is quantified and normalized to the signal defined by the appropriate control wells.

Sequence of human GluN1/GluN2B NMDA receptors (Q13224 27-1484, other chains not shown): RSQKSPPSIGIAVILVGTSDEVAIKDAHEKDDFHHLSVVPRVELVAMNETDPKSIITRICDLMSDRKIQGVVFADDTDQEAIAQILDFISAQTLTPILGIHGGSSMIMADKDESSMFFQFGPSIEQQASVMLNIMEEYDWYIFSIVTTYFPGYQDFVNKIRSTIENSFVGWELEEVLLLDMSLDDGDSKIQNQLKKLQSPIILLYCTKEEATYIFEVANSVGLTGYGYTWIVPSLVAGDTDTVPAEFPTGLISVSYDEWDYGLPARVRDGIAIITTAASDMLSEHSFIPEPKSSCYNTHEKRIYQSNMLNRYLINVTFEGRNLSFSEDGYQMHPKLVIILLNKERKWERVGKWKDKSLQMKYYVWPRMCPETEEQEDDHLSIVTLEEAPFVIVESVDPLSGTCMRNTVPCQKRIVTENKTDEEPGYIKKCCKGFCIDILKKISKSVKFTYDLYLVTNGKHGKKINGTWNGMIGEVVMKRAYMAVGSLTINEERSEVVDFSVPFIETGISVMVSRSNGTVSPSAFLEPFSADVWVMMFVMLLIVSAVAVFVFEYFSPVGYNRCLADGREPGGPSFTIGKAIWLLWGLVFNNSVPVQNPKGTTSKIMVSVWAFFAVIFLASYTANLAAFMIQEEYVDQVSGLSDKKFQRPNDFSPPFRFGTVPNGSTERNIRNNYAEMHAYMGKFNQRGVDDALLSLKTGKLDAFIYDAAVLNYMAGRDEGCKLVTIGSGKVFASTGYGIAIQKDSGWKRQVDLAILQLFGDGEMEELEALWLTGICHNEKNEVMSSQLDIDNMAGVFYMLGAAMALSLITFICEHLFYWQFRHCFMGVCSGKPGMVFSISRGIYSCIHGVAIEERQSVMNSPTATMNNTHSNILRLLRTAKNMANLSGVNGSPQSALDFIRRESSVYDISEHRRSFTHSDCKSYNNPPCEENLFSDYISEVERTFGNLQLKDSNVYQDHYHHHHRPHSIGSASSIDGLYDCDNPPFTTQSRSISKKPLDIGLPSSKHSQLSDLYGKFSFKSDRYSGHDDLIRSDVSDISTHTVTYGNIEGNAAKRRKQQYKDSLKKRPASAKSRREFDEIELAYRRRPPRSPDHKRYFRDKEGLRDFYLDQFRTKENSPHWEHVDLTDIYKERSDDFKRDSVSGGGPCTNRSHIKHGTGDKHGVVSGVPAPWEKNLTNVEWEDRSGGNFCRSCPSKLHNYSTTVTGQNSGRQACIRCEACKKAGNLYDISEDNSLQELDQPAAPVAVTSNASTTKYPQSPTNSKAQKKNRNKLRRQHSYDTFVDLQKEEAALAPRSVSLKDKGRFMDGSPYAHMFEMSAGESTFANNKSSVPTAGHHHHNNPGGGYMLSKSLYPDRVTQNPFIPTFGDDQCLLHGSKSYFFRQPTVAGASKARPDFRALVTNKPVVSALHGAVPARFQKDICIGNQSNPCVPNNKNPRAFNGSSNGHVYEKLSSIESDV

| IC50 | Compound |
| --- | --- |
| 12 nM | O=C1OCCN1Cc1cncc(-c2ccc(F)c(OC(F)F)c2)c1 [Example 2, 3-[[5-[3-(Difluoromethoxy)-4-fluoro-phenyl]-3-pyridyl]methyl]oxazolidin-2-one] |
| 3010 nM | CC(C)[C@H]1COC(=O)N1Cc1cncc(-c2ccc(F)c(OC(F)F)c2)c1 [Example 3, (4S)-3-[[5-[3-(Difluoromethoxy)-4-fluoro-phenyl]-3-pyridyl]methyl]-4-isopropyl-oxazolidin-2-one] |
| 123 nM | O=C1OCc2ccccc2N1Cc1cncc(-c2ccc(F)c(OC(F)F)c2)c1 [Example 4, 1-[[5-[3-(Difluoromethoxy)-4-fluoro-phenyl]-3-pyridyl]methyl]-4H-3,1-benzoxazin-2-one] |
| 12 nM | O=C1OC2(CC2)CN1Cc1cncc(-c2ccc(F)c(OC(F)F)c2)c1 [Example 9, 5-[[5-[3-(Difluoromethoxy)-4-fluoro-phenyl]-3-pyridyl]methyl]-7-oxa-5-azaspiro[2.4]heptan-6-one] |
| 521 nM | CC1(C)CCN(Cc2cncc(-c3ccc(F)c(OC(F)F)c3)c2)C(=O)O1 [Example 10, 3-[[5-[3-(Difluoromethoxy)-4-fluoro-phenyl]-3-pyridyl]methyl]-6,6-dimethyl-1,3-oxazinan-2-one] |
| > 3000 nM | CC(C)[C@@H]1COC(=O)N1Cc1cncc(-c2ccc(F)c(OC(F)F)c2)c1 [Example 11, (4R)-3-[[5-[3-(Difluoromethoxy)-4-fluoro-phenyl]-3-pyridyl]methyl]-4-isopropyl-oxazolidin-2-one] |
| 59 nM | O=C1OC2(CCC2)CN1Cc1cncc(-c2ccc(F)c(OC(F)F)c2)c1 [Example 12, 6-[[5-[3-(Difluoromethoxy)-4-fluoro-phenyl]-3-pyridyl]methyl]-8-oxa-6-azaspiro[3.4]octan-7-one] |
| 39 nM | O=C1OC2(COC2)CN1Cc1cncc(-c2ccc(F)c(OC(F)F)c2)c1 [Example 13, 6-[[5-[3-(Difluoromethoxy)-4-fluoro-phenyl]-3-pyridyl]methyl]-2,8-dioxa-6-azaspiro[3.4]octan-7-one] |
| 267 nM | O=C1OC2(CCOCC2)CN1Cc1cncc(-c2ccc(F)c(OC(F)F)c2)c1 [Example 20, 2-[[5-[3-(Difluoromethoxy)-4-fluoro-phenyl]-3-pyridyl]methyl]-4,8-dioxa-2-azaspiro[4.5]decan-3-one] |
| 806 nM | O=C1OC2(CNC2)CN1Cc1cncc(-c2ccc(F)c(C(F)F)c2)c1 [Example 21, 6-[[5-[3-(Difluoromethyl)-4-fluoro-phenyl]-3-pyridyl]methyl]-8-oxa-2,6-diazaspiro[3.4]octan-7-one Trifluoroacetate Salt] |
| 2600 nM | CC(C)[C@H]1COC(=O)N1Cc1cncc(-c2ccc(F)c(C(F)F)c2)c1 [Example 23, (4S)-3-[[5-[3-(Difluoromethyl)-4-fluoro-phenyl]-3-pyridyl]methyl]-4-isopropyl-oxazolidin-2-one] |
| 73 nM | O=C1OCc2ccccc2N1Cc1cncc(-c2ccc(F)c(C(F)F)c2)c1 [Example 24, 1-[[5-[3-(Difluoromethyl)-4-fluoro-phenyl]-3-pyridyl]methyl]-4H-3,1-benzoxazin-2-one] |
| 12 nM | O=C1OC2(CC2)CN1Cc1cncc(-c2ccc(F)c(C(F)F)c2)c1 [Example 29, 5-[[5-[3-(Difluoromethyl)-4-fluoro-phenyl]-3-pyridyl]methyl]-7-oxa-5-azaspiro[2.4]heptan-6-one] |
| 603 nM | CC1(C)CCN(Cc2cncc(-c3ccc(F)c(C(F)F)c3)c2)C(=O)O1 [Example 30, 3-[[5-[3-(Difluoromethyl)-4-fluoro-phenyl]-3-pyridyl]methyl]-6,6-dimethyl-1,3-oxazinan-2-one] |
| > 3000 nM | CC(C)[C@@H]1COC(=O)N1Cc1cncc(-c2ccc(F)c(C(F)F)c2)c1 [Example 31, (4R)-3-[[5-[3-(Difluoromethyl)-4-fluoro-phenyl]-3-pyridyl]methyl]-4-isopropyl-oxazolidin-2-one] |
| 26 nM | O=C1OC2(CCC2)CN1Cc1cncc(-c2ccc(F)c(C(F)F)c2)c1 [Example 32, 6-[[5-[3-(Difluoromethyl)-4-fluoro-phenyl]-3-pyridyl]methyl]-8-oxa-6-azaspiro[3.4]octan-7-one] |
| 16 nM | C[C@@H]1CN(Cc2cncc(-c3ccc(F)c(C(F)F)c3)c2)C(=O)O1 [Example 33, (5R)-3-[[5-[3-(Difluoromethyl)-4-fluoro-phenyl]-3-pyridyl]methyl]-5-methyl-oxazolidin-2-one] |
| 30 nM | O=C1OC2(COC2)CN1Cc1cncc(-c2ccc(F)c(C(F)F)c2)c1 [Example 34, 6-[[5-[3-(Difluoromethyl)-4-fluoro-phenyl]-3-pyridyl]methyl]-2,8-dioxa-6-azaspiro[3.4]octan-7-one] |

| IC50 | Compound |
| --- | --- |
| 108 nM | O=C1OC2(CCOCC2)CN1Cc1cncc(-c2ccc(F)c(C(F)F)c2)c1 [Example 42, 2-[[5-[3-(Difluoromethyl)-4-fluoro-phenyl]-3-pyridyl]methyl]-4,8-dioxa-2-azaspiro[4.5]decan-3-one] |
| 2620 nM | O=C1OC2(CNC2)CN1Cc1cncc(-c2ccc(F)c(OC(F)F)c2)c1 [Example 43, 6-[[5-[3-(Difluoromethoxy)-4-fluoro-phenyl]-3-pyridyl]methyl]-8-oxa-2,6-diazaspiro[3.4]octan-7-one Trifluoroacetate Salt] |
| 12 nM | Cc1cc(-c2cncc(CN3CCOC3=O)c2)ccc1F [Example 44, 3-[[5-(4-Fluoro-3-methyl-phenyl)-3-pyridyl]methyl]oxazolidin-2-one] |
| 9 nM | Cc1c(F)ccc(-c2cncc(CN3CCOC3=O)c2)c1F [Example 45, 3-[[5-(2,4-Difluoro-3-methyl-phenyl)-3-pyridyl]methyl]oxazolidin-2-one] |
| 26 nM | O=C1OCCN1Cc1cncc(-c2cccc(C(F)(F)F)c2)c1 [Example 46, 3-[[5-[3-(Trifluoromethyl)phenyl]-3-pyridyl]methyl]oxazolidin-2-one] |
| 11 nM | O=C1OCCN1Cc1cncc(-c2ccc(Cl)c(OC(F)F)c2)c1 [Example 47, 3-[[5-[4-Chloro-3-(difluoromethoxy)phenyl]-3-pyridyl]methyl]oxazolidin-2-one] |
| 912 nM | O=C1OCCN1Cc1cncc(-c2ccc(OC(F)(F)F)c(F)c2)c1 [Example 48, 3-[[5-[3-Fluoro-4-(trifluoromethoxy)phenyl]-3-pyridyl]methyl]oxazolidin-2-one] |
| 30 nM | CC(F)(F)c1cc(-c2cncc(CN3CCOC3=O)c2)ccc1F [Example 49, 3-[[5-[3-(1,1-Difluoroethyl)-4-fluoro-phenyl]-3-pyridyl]methyl]oxazolidin-2-one] |
| 786 nM | O=C1OCCN1Cc1cncc(-c2cccc(C(F)(F)F)n2)c1 [Example 50, 3-[[5-[6-(Trifluoromethyl)-2-pyridyl]-3-pyridyl]methyl]oxazolidin-2-one] |
| 1000 nM | O=C1OCCN1Cc1cncc(-c2ccnc(C(F)(F)F)c2)c1 [Example 51, 3-[[5-[2-(Trifluoromethyl)-4-pyridyl]-3-pyridyl]methyl]oxazoidin-2-one] |
| 27 nM | O=C1OCCCN1Cc1cncc(-c2ccc(F)c(C(F)(F)F)c2)c1 [Example 52, 3-[[5-[4-Fluoro-3-(trifluoromethyl)phenyl]-3-pyridyl]methyl]-1,3-oxazinan-2-one] |
| 12 nM | [2H]C([2H])(c1cncc(-c2ccc(F)c(OC(F)F)c2)c1)N1CCCOC1=O [Example 55, 3-[Dideuterio-[5-[3-(difluoromethoxy)-4-fluoro-phenyl]-3-pyridyl]methyl]-1,3-oxazinan-2-one] |
| 9 nM | [2H]C([2H])(c1cc(-c2ccc(F)c(OC(F)F)c2)cnc1C)N1CCCOC1=O [Example 56, 3-[Dideuterio-[5-[3-(difluoromethoxy)-4-fluoro-phenyl]-2-methyl-3-pyridyl]methyl]-1,3-oxazinan-2-one] |
| 23 nM | [2H]C([2H])(c1cc(-c2ccc(F)c(C)c2)cnc1C)N1CCCOC1=O [Example 57, 3-[Dideuterio-[5-(4-fluoro-3-methyl-phenyl)-2-methyl-3-pyridyl]methyl]-1,3-oxazinan-2-one] |
| 25 nM | [2H]C([2H])(c1cc(-c2ccc(F)c(C(F)F)c2)cnc1C)N1CCCOC1=O [Example 58, 3-[Dideuterio-[5-[3-(difluoromethyl)-4-fluoro-phenyl]-2-methyl-3-pyridyl]methyl]-1,3-oxazinan-2-one] |
| 13 nM | [2H]C([2H])(c1cc(-c2ccc(F)c(C(F)F)c2)cnc1C)N1CCOC1=O [Example 59, 3-[Dideuterio-[5-[3-(difluoromethyl)-4-fluoro-phenyl]-2-methyl-3-pyridyl]methyl]oxazolidin-2-one] |
| 128 nM | Cc1ncc(-c2cccc(C(F)F)c2)cc1CN1CCCOC1=O [Example 62, 3-[[5-[3-(Difluoromethyl)phenyl]-2-methyl-3-pyridyl]methyl]-1,3-oxazinan-2-one] |
